Experimental data published in US20050054620A1, “Paricalcitol as a chemotherapeutic agent” (priority 2003, published 2005).

Tests used:
[1] = test system: NCI-H929 cells; assay: Western blot of cell lysates; type: cell-based, human
Description: Western blot analysis was used to determine the levels of proteins involved in cell cycle and differentiation. […] After centrifugation at 15,000×g for 15 min at 4° C., the suspension was collected. Protein concentrations were quantitated using the Bio-Rad assay (Bio-Rad Labolatories, Hercules, Calif.). […] The blots were developed using the Supersignal West Pico Chemiluminescent Substrate Kit (Pierce, Rockford, Ill.). In FIG. 3C, NCI-H929 cells were treated with either paricalcitol (10^−7M) or 1,25(OH)2D3 (10^−7M) and cell lysates were prepared after 72 hrs. Cell lysates were used for Western blot analysis and probed sequentially with antibodies to p27KIP1, Bcl-2 and Bax. Control cells were treated with vehicle alone. Amount of protein was normalized by comparison to the amount of GAPDH. […] The Bcl-2 and Bax antibodies were obtained from Santa Cruz Biotechnology Inc., Santa Cruz, Calif.

[2] = test system: U937 cells expressing PML-RARA (PR9); assay: CD14 expression by flow cytometry, PR9 cells with zinc; type: cell-based, human; conditions: paricalcitol 0.01 μM; 3 days; compared to PR9 without zinc
Description: (A) NB-4 myeloid leukemia cell lines were treated with paricalcitol (0.1 μM) and/or arsenic trioxide (0.6 μM) for 3 days. Control cells were treated with vehicle alone. Cell lysates were made and used for Western blot which was probed sequentially with antibodies to RARA to detect the fusion protein PML-RARα. (B) U937 cells were stably transfected with either the control MT vector (U937-PMT) or the PML-RARα cDNA under the control of the Zn2^+-inducible murine metallothionein 1 promoter (PR9). Cells were treated either with (+) or without (−) Zn for 2 days. Paricalcitol and/or arsenic trioxide of the indicated doses were added to the cells. Cell lysates were harvested and used for Western blot which was probed with antibodies to RARα to detect PML-RARα fusion protein ([…]). (C) U937-PMT and PR9 cells were treated either with or without Zn and with paricalcitol, and/or arsenic trioxide as indicated for 3 days, and CD14 expression was measured by flow cytometry.
Cell lines used in this study were obtained from American Type Culture Collection (Rockville, Md.) and were maintained according to their recommendations. Myeloid leukemia cell lines (HL-60, NB-4, THP-1, U937), lymphoma cell lines (Raji, Ramos, Daudi, Jurkat, Jeko-1, JUDHL), myeloma cell lines (RPMI-8226, ARH-77, NCI-H929), ovarian cancer cell lines and PC-3 prostate cell line were grown in RPMI 1640 with 10% FCS. […]

[3] = test system: 24-hydroxylase mRNA; assay: RT-PCR of 24-hydroxylase mRNA, spleen mononuclear cells of wild type mice; type: cell-based; conditions: 10^−8 M
Description: In FIG. 6B, HT-29 colon cancer cells were treated with paricalcitol (10^−7M) for 0, 6, 12 or 24 hrs and RNA was harvested. Expression of 24 hydroxylase mRNA was analysed by RT-PCR. The amounts of mRNA were normalized by comparison to 18S RNA. In FIG. 6C, mononuclear cells extracted from spleens of either wild type or VDR knock-out mice were treated with paricalcitol (10^−8M) for either 12 or 24 hrs, and RNA was harvested. Expression of 24 hydroxylase mRNA was analysed by RT-PCR. The amounts of mRNA were normalized by comparison to 18S RNA. For the PCR analysis, RNA extraction and reverse transcription were done by TRIzole (Invitrogen, Carlsbad, Calif.) and reverse transcriptase (Promega, Madison, Wis.). A twenty-microliter volume of cDNA was prepared from 1 μg of RNA. cDNAs were amplified by PCR with specific primers for 24-hydroxylase and 18S. The cycle number was 25 for 18S and 32 for 24-hydroxylase. […] The VDR KO Mouse and Colony-Forming Assay was performed as follows. VDR KO mice were generated and genotypes were determined by Southern Blot Analysis as described previously (O'Kelly et al., supra, 2002). For experiments using VDR KO mice, their wild-type (WT) littermates were used as controls. Mice were killed by cervical neck dislocation. […] Colonies were counted after 2 weeks. […]

[4] = humans, cited from earlier work
[5] = test system: NCI-H929 myeloma cells; conditions: 4 days exposure

Compound: C[C@H](/C=C/[C@H](C)C(C)(C)O)[C@H]1CC[C@H]2/C(=C/C=C3C[C@@H](O)C[C@H](O)C3)CCC[C@]12C [paricalcitol, 19-nor-1,25, (OH)2D3]
- expression of Bcl-2 and p27^KIP1 ([1]; 0.01 μM each, 3 days): down-regulated
- decrease of Bcl-2 protein level ([1]; 10^−7M, 72 hrs): about 40%
- effect on levels of Bax ([1]; 10^−7M, 72 hrs): did not affect
- effect on levels of p21WAF1 ([1]; 10^−7M, 96 hrs): little effect
- increase of p27KIP1 expression ([1]; 10^−7M, 96 hrs): about 3 fold
- differentiation (CD14) of PR9 cells cultured with zinc [2]: partially blocked
- time within which 24-hydroxylase mRNA expression was induced [3]: ≤ 12 h
- dose safely given [4]: up to 16.8 mg
- hypercalcemia ([4]; compared with 1,25(OH)2D3): less likely to cause hypercalcemia
- antiproliferative effect by MTT assay [5]: sensitive
